Results from patent US7485721B2, “Substituted porphyrins” (Duke University, priority 2002, dated 2009).

What was measured:
[1] = equilibrium H3P^5+ = H2P^4+ + H^+; cited from earlier work
[2] = Thin-layer chromatography, retention factor Rf as lipophilicity; assay type: physicochemical; conditions: silica gel TLC plates, 1:1:8 KNO3-saturated H2O:H2O:acetonitrile; for Rf (compound path/solvent path): Mn(III) complex; for Rf (compound path/solvent path), metal-free porphyrin (in parentheses): corresponding metal-free porphyrin H2T(alkyl)-2-PyP^4+
From the text: Thin-layer chromatography. All ligands and their Mn(III) complexes were chromatographed on silica gel TLC plates using 1:1:8 KNO3-saturated H2O:H2O: acetonitrile. The atropoisomers could not be separated for the methyl^19 and ethyl analogues,^24 they begin to separate for the n-propyl and n-butyl species and were clearly resolved with the n-hexyl and n-octyl compounds.
Thin Layer Chromatography. The increase in the length of the alkyl chains is accompanied by an increase in the lipophilicity of the compounds as indicated by the increase in the retention factor Rf (porphyrin path/solvent path) (Table 1, FIG. 2). […] As the chains lengthen, their contribution to the overall lipophilicity increases, and eventually the n-octyl porphyrin and its Mn(III) complex are more alike in Rf than are methyl analogues.

[3] = Spectrophotometric proton dissociation constant pKa2; assay type: physicochemical; conditions: of the metal-free porphyrin H2T(alkyl)-2-PyP^4+; 25° C., ionic strength 0.10 (NaNO3/NaOH)
Experimental: Uv/vis spectroscopy. The uv/vis spectra were taken on a Shimadzu UV-2501 PC spectrophotometer at 25° C. The proton dissociation constants (pKa2), were determined spectrophotometrically at 25° C., at an ionic strength of 0.1 M (NaOH/NaNO3), as previously described.^4
The proton dissociation constants, Ka2 and Ka3 are defined as follows: H2P^4+ ? HP^3++H^+Ka2 [1] H3P^5+ ? H2P^4++H^+ Ka3 [2] As the alkyl chains lengthen the porphyrins become less hydrated and the separation of charges (eq) becomes less favorable, ie. pKa2 increases (FIG. 3 insert).

[4] = Cyclic voltammetry, metal-centered redox potential E1/2 of Mn(III)/Mn(II) couple; assay type: physicochemical; conditions: 0.05 M phosphate buffer (pH 7.8, 0.1 M NaCl)
Experimental: Electrochemistry. Measurements were performed on a CH Instruments Model 600 Voltammetric Analyzer.^3.4 A three-electrode system in a small volume cell (0.5 mL to 3 mL), with a 3 mm-diameter glassy carbon button working electrode (Bioanalytical Systems), plus the Ag/AgCl reference and Pt auxilliary electrodes was used. Solutions contained 0.05 M phosphate buffer, pH 7.8, 0.1 M NaCl, and […] metalloporphyrin. The scan rates were 0.01-0.5 V/s, typically 0.1 V/s. The potentials were standardized against the potassium ferrocyanide/ferricyanide^20 and/or against Mn^IIITE-2-PyP^5+. All voltammograms were reversible.
Electrochemistry. […] The metal-centered redox potentials, E1/2 are in Table 1 and the representative voltammograms of the Mn^III/IITE-2-PyP^5+/4+ and Mn^III/IITnHex-2-PyP^5+/4+ compounds are shown in the Supporting Material, FIG. 6. Both lipophilicity (FIG. 2B) and E1/2 (FIG. 3B, insert) increase exponentially with the number of CH2 groups in the alkyl chains. Consequently, the increase in E1/2 is a linear function of Rf (FIG. 3B).

[5] = Catalysis of O2^− dismutation, cytochrome c assay (xanthine/xanthine oxidase); assay type: biochemical; conditions: 0.05 M phosphate buffer, pH 7.8, (25 ± 1) ° C.
From the text: Catalysis of O2^− dismutation. We have previously shown that the O2^− /cytochrome c reduction assay gives the same catalytic rate constants as does pulse radiolysis for Mn^IIITE-2-PyP^5+, {Mn^IIIBVDME}2, {Mn^IIIBV}2 and MnCl2.^21 Therefore the convenient cytochrome c assay was used to characterize the series of Mn(III) N-alkylpyridylporphyrins. The xanthine/xanthine oxidase reaction was the source of O2^− and ferricytochrome c was used as the indicating scavenger for O2^−.^22 The reduction of cytochrome c was followed at 550 nm. Assays were conducted at (25±1) ° C., in 0.05 M phosphate buffer, pH 7.8, 0.1 mM EDTA, in the presence and absence of 15 μg/mL of catalase. Rate constants for the reaction of metalloporphyrins with O2′^− were based upon competition with 10 μM cytochrome c, kcyt c=2.6×10^5 M^−1 s^−1 as described elsewhere.^21 The O2^− was produced at the rate of 1.2 μM per minute. Any possible interference through inhibition of the xanthine/xanthine oxidase reaction by the test compounds was examined by following the rate of urate accumulation at 295 nm in the absence of cytochrome c. No reoxidation of cytochrome c by the metalloporphyrins was observed
Catalysis of O2^− dismutation. […] All of the manganese compounds are potent catalysts of O2^− dismutation with log kcat between 7.79 and 7.25.

[6] = Mn loss from Mn porphyrins in 12 M HCl; assay type: physicochemical
Experimental: The half-lives for the acid and anion-catalyzed removal of zinc from Zn N-methylated derivatives^35 in 1.0 M HNO3 were 89 s for the meta, 165 s for the para, and 19 hours for the ortho ZnTM-2-PyP^4+. […] In addition to porphyrin ring distortion,^29-32 the steric hindrance and solvation effects imposed by the progressively longer alkyl chains may also contribute to the differences in metaladon/demetalation behavior.

[7] = system: SOD-deficient Escherchia coli; conditions: aerobic conditions; cited from earlier work
[8] = stroke, diabetes, sickle cell disease, cancer/radiation; cited from earlier work
[9] = Stability of reduced Mn(II) porphyrins in excess ascorbic acid; conditions: aerobic, within 125 min; 6 μM, 70-fold excess of ascorbic acid, pH 7.8, 0.1 M tris buffer; reduced Mn(II) form
Experimental: Therefore, we also examined the behavior of the reduced and more biologically relevant Mn^IIT(alkyl)-2-PyP^4+ compounds. We compared the methyl, n-hexyl and n-octyl derivatives (6 μM) aerobically and anaerobically in the presence of a 70-fold excess of ascorbic acid (pH 7.8, 0.1 M tris buffer) and in the presence and absence of a 150-fold excess of EDTA.

[10] = 1.0 M HNO3, within a week; cited from earlier work
[11] = kcat=kred=kox; cited from earlier work

For C[n+]1cccc(-c2c3nc(c(-c4ccc[n+](C)c4)c4ccc([nH]4)c(-c4ccc[n+](C)c4)c4nc(c(-c5ccc[n+](C)c5)c5ccc2[nH]5)C=C4)C=C3)c1 [H2TM-3-PyP^4+], which pKa3 [1] is on record?
The pKa3 was 1.8.

Which pKa3 [1] does the source give for C[n+]1ccc(-c2c3nc(c(-c4cc[n+](C)cc4)c4ccc([nH]4)c(-c4cc[n+](C)cc4)c4nc(c(-c5cc[n+](C)cc5)c5ccc2[nH]5)C=C4)C=C3)cc1 [H2TM-4-PyP^4+] here?
The pKa3 was 1.4.

For C[n+]1ccccc1-c1c2nc(c(-c3cccc[n+]3C)c3ccc([nH]3)c(-c3cccc[n+]3C)c3nc(c(-c4cccc[n+]4C)c4ccc1[nH]4)C=C3)C=C2.[Mn+3] [Mn^IIITM-2-PyP^5+, Mn(III) meso tetrakis(N-methylpyridinium-2-yl)porphyrin], which “Rf (compound path/solvent path)” value [2] is on record?
The value was 0.09.

What about the “Rf (compound path/solvent path), metal-free porphyrin (in parentheses)” value [2] of the same compound?
Its value is 0.13.

And the pKa2 [3]?
Its pKa2 is 10.9.

And the E1/2 [4]?
Its E1/2 is “+220 mV vs NHE”.

And the log kcat [5]?
Its log kcat is 7.79.

And the Mn lost ([6]; 12 M HCl, within a month)?
The Mn lost was “over 50%”.

What about the “growth of SOD-deficient E. coli” value [7] of the same compound?
The value was “allow SOD-deficient Escherchia coli to grow under aerobic conditions”.

And the “protection in rodent models of oxidative stress” value [8]?
Its value is “offer protection in rodent models of oxidative stress”.

And the “degradation of Mn(II) porphyrin” value [9]?
Its value is −40%.

Which “Rf (compound path/solvent path)” value [2] does the source give for CCCC[n+]1ccccc1-c1c2nc(c(-c3cccc[n+]3CCCC)c3ccc([nH]3)c(-c3cccc[n+]3CCCC)c3nc(c(-c4cccc[n+]4CCCC)c4ccc1[nH]4)C=C3)C=C2.[Mn+3] [Mn^IIITnBut-2-PyP^5+] here?
Its value is 0.33.

What about the “Rf (compound path/solvent path), metal-free porphyrin (in parentheses)” value [2] of the same compound?
The value was 0.46.

What about the pKa2 [3] of the same compound?
Its pKa2 is 11.7.

And the E1/2 [4]?
Its E1/2 is “+254 mV vs NHE”.

What about the log kcat [5] of the same compound?
The log kcat was 7.25.

For CCCCCC[n+]1ccccc1-c1c2nc(c(-c3cccc[n+]3CCCCCC)c3ccc([nH]3)c(-c3cccc[n+]3CCCCCC)c3nc(c(-c4cccc[n+]4CCCCCC)c4ccc1[nH]4)C=C3)C=C2.[Mn+3] [Mn^IIITnHex-2-PyP^5+], which “Rf (compound path/solvent path)” value [2] is on record?
The value was 0.57.

And the “Rf (compound path/solvent path), metal-free porphyrin (in parentheses)” value [2]?
The value was 0.63.

And the pKa2 [3]?
Its pKa2 is 12.2.

What about the E1/2 [4] of the same compound?
Its E1/2 is “+314 mV vs NHE”.

What about the log kcat [5] of the same compound?
Its log kcat is 7.48.

And the “spectral change (Mn loss)” value ([6]; solid dissolved in 12 M HCl, 3 months)?
Its value is “the spectra did not change within 3 months”.

And the “degradation of Mn(II) porphyrin” value [9]?
The value was “none”.

For CCCCCCCC[n+]1ccccc1-c1c2nc(c(-c3cccc[n+]3CCCCCCCC)c3ccc([nH]3)c(-c3cccc[n+]3CCCCCCCC)c3nc(c(-c4cccc[n+]4CCCCCCCC)c4ccc1[nH]4)C=C3)C=C2.[Mn+3] [Mn^IIITnOct-2-PyP^5+], which “Rf (compound path/solvent path)” value [2] is on record?
The value was 0.80.

What about the “Rf (compound path/solvent path), metal-free porphyrin (in parentheses)” value [2] of the same compound?
The value was 0.86.

And the pKa2 [3]?
Its pKa2 is 13.2.

What about the E1/2 [4] of the same compound?
The E1/2 was “+367 mV vs NHE”.

And the log kcat [5]?
The log kcat was 7.71.

What about the “degradation of Mn(II) porphyrin” value [9] of the same compound?
The value was “none”.

With CCCCCC[n+]1ccccc1-c1c2nc(c(-c3cccc[n+]3CCCCCC)c3ccc([nH]3)c(-c3cccc[n+]3CCCCCC)c3nc(c(-c4cccc[n+]4CCCCCC)c4ccc1[nH]4)C=C3)C=C2.[Zn+2] [ZnTnHex-2-PyP^4+] as the compound, how does the zinc loss [10] read?
Its zinc loss is “No indication of zinc loss was found within a week”.

With “CuZn—SOD: CuZn superoxide dismutase enzyme” as the compound, how does the kcat [11] read?
The kcat was 2e+09 M⁻¹ s⁻¹.

Which results are given for “meso tetrakis(N-ethylpyridinium-2-yl)porphyrins [Mn^IIITE-2-PyP^5+]”?
Rf (compound path/solvent path) [2]: 0.13; Rf (compound path/solvent path), metal-free porphyrin (in parentheses) [2]: 0.21; pKa2 [3]: 10.9; E1/2 [4]: +228 mV vs NHE; log kcat [5]: 7.76; growth of SOD-deficient E. coli [7]: allow SOD-deficient Escherchia coli to grow under aerobic conditions; protection in rodent models of oxidative stress [8]: offer protection in rodent models of oxidative stress
